Experimental data reported in patent publication EP1247803A2, “Indolinone compounds suitable for modulation of protein kinases” (Sugen, Inc., priority 1996, dated 1998).

How the values were obtained:
PDGF-R = PDGF-R (Homo sapiens, UniProt P09619); experiment: PDGF-R ELISA; assay type: cell-based
Description: A PDGF-R ELISA is described in International Patent Publication No. WO 96/40116, published December 19, 1996 by Tang et al.

MET = MET biochemical kinase assay; set-up: species or system human; concentration or dose not given beside the values
Procedure, shortened: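 Colorimetric signal from an HRP-linked anti-phosphotyrosine antibody with TMB measures phosphate incorporated into immobilised MET. The receptor is pulled from lysates by a polyclonal antibody against its cytoplasmic domain, then reacts in ATP- and metal-containing buffer with test compound.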

FLK-1 receptor = biological target: T1, FLK-1 receptor (Mus musculus, UniProt P35918); experiment: FLK-1 ELISA (kinase activity of the FLK-1 receptor in FLK-1/NIH3T3 cells, VEGF stimulated); assay type: cell-based
T1 construct: expressed in transfected cells; host or cells: NIH3T3 C7#3
Procedure, shortened: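 An ELISA using affinity-purified rabbit anti-FLK-1 antiserum on anti-rabbit IgG-coated plates measured VEGF-stimulated FLK-1 kinase activity. NIH3T3 C7#3 cells carrying FLK-1 were serum-starved (0.1% FBS) overnight, then exposed to compound (final 1:200 dilution, 0.5% DMSO) for two hours at 37 °C.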

PDGF-R, sequence (P09619 33-1106, species assumed): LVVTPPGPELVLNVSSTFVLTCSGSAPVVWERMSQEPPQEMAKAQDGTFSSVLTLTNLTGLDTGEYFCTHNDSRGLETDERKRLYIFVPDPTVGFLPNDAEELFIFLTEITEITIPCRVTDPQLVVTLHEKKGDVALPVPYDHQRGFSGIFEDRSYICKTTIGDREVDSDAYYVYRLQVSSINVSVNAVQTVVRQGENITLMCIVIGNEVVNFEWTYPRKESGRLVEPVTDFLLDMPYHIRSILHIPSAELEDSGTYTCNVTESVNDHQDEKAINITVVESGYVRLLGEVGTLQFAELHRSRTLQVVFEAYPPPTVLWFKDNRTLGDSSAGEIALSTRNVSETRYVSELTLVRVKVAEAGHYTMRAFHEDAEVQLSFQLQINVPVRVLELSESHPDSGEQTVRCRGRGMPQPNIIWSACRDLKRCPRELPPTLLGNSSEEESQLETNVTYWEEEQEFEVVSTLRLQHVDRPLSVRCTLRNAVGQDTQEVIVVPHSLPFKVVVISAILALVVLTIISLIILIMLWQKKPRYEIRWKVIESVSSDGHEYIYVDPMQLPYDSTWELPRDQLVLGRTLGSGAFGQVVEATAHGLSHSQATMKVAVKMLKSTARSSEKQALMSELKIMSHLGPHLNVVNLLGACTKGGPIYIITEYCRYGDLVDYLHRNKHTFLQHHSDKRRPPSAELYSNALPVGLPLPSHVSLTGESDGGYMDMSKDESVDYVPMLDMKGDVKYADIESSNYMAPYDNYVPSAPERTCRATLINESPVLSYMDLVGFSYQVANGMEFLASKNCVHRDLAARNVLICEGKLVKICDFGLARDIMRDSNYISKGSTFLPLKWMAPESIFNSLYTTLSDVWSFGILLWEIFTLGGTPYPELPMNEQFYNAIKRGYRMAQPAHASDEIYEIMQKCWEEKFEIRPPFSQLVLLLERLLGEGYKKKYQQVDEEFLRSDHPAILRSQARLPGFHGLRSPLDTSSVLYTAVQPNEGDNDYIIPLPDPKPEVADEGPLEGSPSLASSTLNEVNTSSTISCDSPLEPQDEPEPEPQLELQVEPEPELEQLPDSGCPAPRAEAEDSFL
T1 sequence (P35918 20-1345): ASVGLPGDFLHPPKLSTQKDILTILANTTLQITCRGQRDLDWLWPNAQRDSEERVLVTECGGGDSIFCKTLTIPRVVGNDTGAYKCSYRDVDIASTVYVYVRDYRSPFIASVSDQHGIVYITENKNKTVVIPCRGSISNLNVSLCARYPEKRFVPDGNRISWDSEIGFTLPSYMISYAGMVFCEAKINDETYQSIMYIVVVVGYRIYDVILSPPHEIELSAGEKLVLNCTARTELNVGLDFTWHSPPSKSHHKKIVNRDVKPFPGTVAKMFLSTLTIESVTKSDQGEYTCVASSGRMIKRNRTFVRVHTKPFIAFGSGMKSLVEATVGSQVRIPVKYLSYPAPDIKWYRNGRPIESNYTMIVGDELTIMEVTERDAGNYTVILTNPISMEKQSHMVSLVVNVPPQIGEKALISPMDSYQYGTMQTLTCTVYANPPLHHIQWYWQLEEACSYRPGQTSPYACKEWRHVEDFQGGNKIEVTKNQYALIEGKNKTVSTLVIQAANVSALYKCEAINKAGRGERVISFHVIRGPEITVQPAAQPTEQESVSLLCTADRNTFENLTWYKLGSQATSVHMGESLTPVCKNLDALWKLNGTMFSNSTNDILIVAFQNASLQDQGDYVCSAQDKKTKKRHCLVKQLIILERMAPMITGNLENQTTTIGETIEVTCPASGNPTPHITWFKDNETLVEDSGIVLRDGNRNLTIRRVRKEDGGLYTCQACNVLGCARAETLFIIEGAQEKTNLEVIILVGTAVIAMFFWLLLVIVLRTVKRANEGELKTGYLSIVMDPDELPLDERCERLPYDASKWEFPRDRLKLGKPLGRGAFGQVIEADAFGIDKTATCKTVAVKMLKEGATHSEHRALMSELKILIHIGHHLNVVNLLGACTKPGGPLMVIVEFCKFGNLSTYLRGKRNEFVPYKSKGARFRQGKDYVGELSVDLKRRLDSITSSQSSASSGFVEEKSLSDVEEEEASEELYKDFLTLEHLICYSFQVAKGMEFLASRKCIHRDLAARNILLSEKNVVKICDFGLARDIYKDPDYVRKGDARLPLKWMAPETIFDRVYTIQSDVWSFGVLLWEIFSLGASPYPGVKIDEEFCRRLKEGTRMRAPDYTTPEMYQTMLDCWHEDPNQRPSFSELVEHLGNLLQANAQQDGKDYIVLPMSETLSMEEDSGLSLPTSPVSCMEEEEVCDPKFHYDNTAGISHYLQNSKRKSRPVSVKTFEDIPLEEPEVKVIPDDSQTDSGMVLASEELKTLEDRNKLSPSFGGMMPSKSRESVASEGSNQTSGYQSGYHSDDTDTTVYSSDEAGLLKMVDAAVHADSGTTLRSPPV

SMILES	PDGF Kinase %Inhibition (PDGF-R) [%]	Met Kinase % Inhibition (MET) [%]	Fik Kinase %Inhibition (FLK-1 receptor) [%]
O=C1Nc2ccc(S(=O)(=O)N3CCOCC3)cc2C1=Cc1cc(O)c2c(c1O)CCCC2 [10726/F07]	-99.4	96.1	9.6
O=C1Nc2ccccc2C1=C1C(=O)Nc2ccc(S(=O)(=O)Nc3ccc(C(F)(F)F)cc3)cc21 [10726/E09]	34.7	50.3	9.9
O=C1Nc2ccc(S(=O)(=O)Nc3ccc(C(F)(F)F)cc3)cc2C1=Cc1ccc(Br)o1 [10726/E05]	4.3	71.0	8.1
O=C1Nc2ccc(I)cc2C1=Cc1cc2c(cc1Cl)OCO2 [10727/B06]	6.4	91.0	-3.9
CCc1cc(CC)c(C=C2C(=O)Nc3c(Br)cc(Br)cc32)[nH]1 [10727/A03]	-4.5	40.7	6.3
Cc1cc(C=C2C(=O)Nc3ccc(S(=O)(=O)Nc4ccc(C(F)(F)F)cc4)cc32)cc(C(C)(C)C)c1O [10726/E04]	12.6	85.5	8.1
O=C1Nc2c(Br)cc(Br)cc2C1=Cc1cc2c(cc1Cl)OCO2 [10727/A06]	13.7	32.7	-17.1
Cc1c(Br)ccc2c1C(=Cc1ccc(C#N)cc1)C(=O)N2 [10727/C09]	21.7	37.9	-13.5
CCOC(=O)c1[nH]c(C=C2C(=O)Nc3ccc(S(=O)(=O)N4CCOCC4)cc32)c(C(=O)OC)c1C [10726/F03]	5.6	54.1	8.3
O=C1Nc2c(Br)cc(Br)cc2C1=Cc1ccccc1Sc1ccc(Cl)cc1 [10727/A05]	5.7	29.0	4.2
CCN(CC)c1ccc(C=C2C(=O)Nc3c(Br)cc(Br)cc32)cc1 [10727/A02]	-10.3	52.0	-1.3
CCc1ccc(C=C2C(=O)Nc3ccc(S(=O)(=O)N4CCOCC4)cc32)s1 [10726/F10]	9.4	51.4	7.0
CCc1cc(CC)c(C=C2C(=O)Nc3ccc(S(=O)(=O)NC)cc32)[nH]1 [10727/D03]	-3.0	24.0	3.1
COc1ccc(C=C2C(=O)Nc3ccc(S(=O)(=O)Nc4ccc(C(F)(F)F)cc4)cc32)cc1 [10726/E11]	30.3	34.5	16.2
O=C1Nc2ccc(CCCl)cc2C1=Cc1ccc(F)cc1 [10717/G05]	–	4.7	5.3
O=C1Nc2c(Br)cc(Br)cc2C1=Cc1c[nH]c2ccccc12 [10717/A06]	–	31.7	-10.8
COc1cccc(O)c1C=C1C(=O)Nc2ccc(CCCl)cc21 [10717/G10]	–	30.9	4.8
O=C1Nc2ccc(CCCl)cc2C1=Cc1ccc[nH]1 [10717/G09]	–	19.1	-29.7
Cn1cccc1C=C1C(=O)Nc2ccc(CCCl)cc21 [10717/G04]	–	10.9	0.8
O=C1Nc2ccc(CCCl)cc2C1=Cc1c[nH]c2ccccc12 [10717/G06]	–	34.0	4.3
Cc1ccc(C=C2C(=O)Nc3ccc(CCCl)cc32)s1 [10717/G07]	–	7.5	-17.0
O=C1Nc2ccc(CCCl)cc2C1=Cc1ccc(Br)cc1 [10717/G08]	–	10.9	1.9
